Usually inhibition stands for the percentage by which the read-out fell short of the control. A low value points to a response near the control.

Non-standard residues stand in square brackets, D forms with d. Residues, ends and D or L forms follow the SMILES beside them. Sta = CC(C)C[C@H](N)[C@@H](O)CC(=O)O; N(iPr)Gly = CC(C)NCC(=O)O

Test [1] relates to βAP production. As to the kind of experiment: Assay 4: βAP production inhibition (cellular assay, ELISA of conditioned media, normalised to MTT). The class given is cell-based, human; Chinese hamster. The following applies: compound at 10 µg/mL; 293 751 SWE and CHO 751 SWE cells (table does not say which); βAP ELISA divided by MTT result, relative to drug-free control; mean and standard deviation of at least six replicate assays. An excerpt: The test system used to measure the βAP production inhibition activity is typically a cellular assay or an animal model. Preferably, the βAP production inhibition activity is obtained by direct measurement of βAP production in a cellular assay, as described in WO9410569, the full disclosure of which is incorporated herein by reference. This assay is exemplified in Assay 4, below.
Two cell lines (human kidney cell line 293 and Chinese hamster ovary cell line CHO) were stably transfected with the gene for APP-751 containing the double mutation Lys₆₅₁-Met₆₅₂ to Asn₆₅₁-Leu₆₅₂ (APP-751 numbering) commonly called the Swedish mutation using the method described in Citron et al., (1992) Nature 360:672-674. The transfected cell lines were designated as 293 751 SWE and CHO 751 SWE, and were plated in Corning 96 well plates at 2.5x10⁴ or 1x10⁴ cells per well respectively in Dulbecco's minimal essential media plus 10% fetal bovine serum. Following overnight incubation at 37°C in an incubator equilibrated with 10% carbon dioxide (CO₂), the media were removed and replaced with 200 µL per well of media containing an aspartyl protease inhibitor. After a two hour pretreatment period, the media were again removed and replaced with fresh media containing the aspartyl protease inhibitor and the cells were incubated for an additional two hours.
After treatment, plates were centrifuged in a Beckman GPR at 1200 rpm for five minutes at room temperature to pellet cellular debris from the conditioned media. From each well, 100µL of conditioned media were transferred into an ELISA plate precoated with antibody 266 against βAP-13-28 (Seubert et al., supra.) and stored at 4°C overnight. An ELISA assay employing labelled antibody 6C6 (against βAP-1-16) was run the next day to measure the amount of βAP produced.
Cytotoxic effects of the compounds were measured by a modification of the method of Hansen et al., (1989) J. Immun. Meth. 119:203-210. To the cells remaining in the tissue culture plate, was added 25 µL of a 3,(4,5-dimethylthiazol-2-yl)2,5-diphenyltetrazolium bromide (MTT) stock solution (5 mg/mL) to a final concentration of 1 mg/mL. Cells were incubated at 37°C for one hour, and cellular activity was stopped by the addition of an equal volume of MTT lysis buffer (20% w/v sodium dodecylsulfate in 50% DMF, pH 4.7). Complete extraction was achieved by overnight shaking at room temperature. The difference in the OD562nm and the OD650nm was measured in a Molecular Devices UVmax microplate reader as an indicator of the cellular viability.
The results of the βAP ELISA were fit to a standard curve and expressed as ng/mL βAP peptide. In order to normalize for cytotoxicity, these βAP results were divided by the MTT results and expressed as a percentage of the results from a drug-free control.
The compounds prepared above in Examples 9, 12, 13, 20-23, 23A, 24, 30, 41-43, 45, and 48 were assayed for βAP production inhibition activity in cells at 10 µg/mL using Assay 4. The results presented in Assay Table 4, below, are the mean and standard deviation of at least six replicate assays. Assay Table 4
In general terms: An ELISA detects its analyte on a solid surface through an enzyme-linked reagent.

Test [2] concerns the target Human liver cathepsin D (Homo sapiens, UniProt P07339). As to the kind of experiment: Assay 2: cathepsin D inhibition activity (non-cellular fluorometric assay). Further details: Human liver cathepsin D (Athens Research and Technology, Athens, GA); purchased Athens Research and Technology, Athens, GA; host or cells: human liver (by the product's printed name). It counts as biochemical. The method, then: A second non-cellular assay for determining in vitro aspartyl protease inhibitory activity utilizes a microtiter plate, where a suitable aspartyl protease, such as cathepsin D is added to each well together with controls. A suitable fluorometric substrate is added to each well. The resultant reaction mixture is allowed to react for a preselected time, e.g., 30 minutes. After enzyme activity is terminated, the substrate or its product may be determined fluorometrically and then the protease inhibition activity may be calculated based on the rates of substrate turnover. This assay is exemplified in Assay 2, below.
A fluorometric assay was adapted from the method disclosed by Murakami et al., (1981) Anal. Biochem. 110:232-239 for measuring renin activity. Human liver cathepsin D (Athens Research and Technology, Athens, GA) was diluted in assay buffer, 200mM NaOAc, pH 4.5, 150mM NaCl to 500 ng/mL and then 100 µL of this cathepsin D solution was added to each well of a 96 well plate with the exception of control wells which received just 100 µL of assay buffer. Compound stocks were prepared by dissolving an aspartyl protease inhibitor in DMSO for each concentration tested in the assay and then 5 µL of compound stock was added to each of the wells prepared above. Blank and enzyme control wells each received 5 µL of the DMSO vehicle.
Following a ten minute incubation at 25°C to allow enzyme/compound interaction, 5 µL of 500µM fluorometric substrate (Suc-Arg-Pro-Phe-His-Leu-Leu-Val-Try-AMC [SEQ ID NO:4], Bachem Biosciences, Philadelphia, PA) in DMSO was added per well to initiate the reaction. After incubation at 37°C for 30 minutes, cathepsin D activity was terminated by the addition of 100 µL per well of 400 mU/mL microsomal leucine aminopeptidase (EC 3.4.11.2, Sigma, St. Louis, MO) in 1M Tris-HCl, pH 8.0.
The plates were then analyzed in a fluorometer (CytoFluor 2350, Millipore, Bedford, MA) with an excitation wavelength of 360nm and an emission wavelength of 460nm, in order to check for background fluorescence due to test compounds. Following a two hour incubation at 37°C, to allow the aminopeptidase to release the fluorophore, 7-amido-4-methylcoumarin (AMC) from the products of cathepsin D cleavage, the plates were again analyzed in the fluorometer. In order to check for potential false positives, i.e., inhibitors of microsomal leucine aminopeptidase, residual aminopeptidase activity was monitored directly in each well by the addition of 20 µL/well of 2.5mM Leu-pNA (Bachem Biosciences, Philadelphia, PA) in 10% DMSO. Aminopeptidase activity was measured as an increase in the absorbance at 405nm in a UVmax microplate reader (Molecular Devices, Menlo Park, CA).
The compounds prepared in Examples 9, 12, 13, 20-23, 23A, 24, 30, 41-43, 45, and 48 were assayed at 10 µg/mL for cathepsin D inhibition activity using Assay 2. Cathepsin D activity was linear under these conditions and the results are expressed as percent inhibition of the control activity in Assay Table 2, below. All results presented are the mean and standard deviation of at least four replicate assays. Assay Table 2

Human liver cathepsin D, sequence (P07339 65-412): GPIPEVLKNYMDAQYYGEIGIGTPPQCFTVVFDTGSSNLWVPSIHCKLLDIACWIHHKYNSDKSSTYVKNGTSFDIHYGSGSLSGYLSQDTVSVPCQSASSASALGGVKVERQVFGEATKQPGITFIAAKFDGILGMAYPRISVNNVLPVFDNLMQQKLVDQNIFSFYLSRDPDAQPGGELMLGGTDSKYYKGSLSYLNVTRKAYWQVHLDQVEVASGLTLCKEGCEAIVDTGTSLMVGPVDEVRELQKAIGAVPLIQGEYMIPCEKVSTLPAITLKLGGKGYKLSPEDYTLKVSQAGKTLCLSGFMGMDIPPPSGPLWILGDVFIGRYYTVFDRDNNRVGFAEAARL

Turning to `Cc1ccc(C(=O)C2NCCc3ccccc32)cc1C(=O)N[C@@H](Cc1ccccc1)[C@H](O)CN1C[C@H]2CCCC[C@H]2C[C@H]1C(=O)NC(C)(C)C` (relative stereo) [Example 30, [3S-(3R*,4aR*,8aR*,2'S*,3'R*)]-2-[2'-Hydroxy-3'-phenylmethyl-4'-aza-5'-oxo-5'-(3''-[1''',2''',3''',4'''-tetrahydroisoquinolin-1'''-ylcarbonyl]-6''-methyl)phenyl]pentyl-decahydroisoquinoline-3-N-t-butylcarboxamide], in test [1], the “βAP Production Inhibition” value is given as 69.2 ± 2.2%.
For `Cc1cccc2ccc(C(=O)N[C@@H](CC(N)=O)C(=O)N[C@@H](Cc3ccccc3)[C@H](O)Cc3ccccc3C(=O)NC(C)(C)C)nc12` [Example 9, [1S-(1R*,4R*,5S*)]-N-(1-(2-Amino-2-oxoethyl)-2-oxo-3-aza-4-phenylmethyl-5-hydroxy-6-(2-(1-t-butylamino-1-oxomethyl)phenyl)hexyl)-8-methylquinolin-2-yl carboxamide], the inhibition at 10 µg/mL in test [1] amounted to 44.4 ± 7.7%.
In test [1], `CC(C)C(NC(=O)C(Cc1cccc2ccccc12)NC(=O)OC(C)(C)C)C(=O)NC(Cc1ccccc1)C(O)Cc1ccccc1C(=O)NC(C)(C)C` (stereo not drawn) [Example 23, [2R-(2R*,3S*,6S*,9S*)]-N-t-Butyl-2-[2-hydroxy-3-phenylmethyl-4,7-diaza-5,8-dioxo-6-(1-methylethyl)-9-N(t-butoxycarbonyl)amino-10-naphth-1-yl]decyl benzamide] came in with an inhibition at 10 µg/mL of 96.3 ± 2.8%.
For the compound `CC(C)C(NC(=O)C(Cc1cccc2ccccc12)NC(=O)OC(C)(C)C)C(=O)NC(Cc1ccccc1)C(O)Cc1ccccc1C(=O)NC(C)(C)C` (stereo not drawn) [Example 24, [2R-(2R*,3S*,6S*,9R*)]-N-t-Butyl-2-[2-hydroxy-3-phenylmethyl-4,7-diaza-5,8-dioxo-6-(1-methylethyl)-9-N(t-butoxycarbonyl)amino-10-naphth-1-yl]decyl benzamide], the “βAP Production Inhibition” value in test [1] was found to be 92.7 ± 1.4%.
Regarding `CC(=O)NCC(=O)N[C@H](C(=O)N[C@H](C(=O)N[C@@H](CC(C)C)[C@@H](O)CC(=O)N[C@@H](C)C(=O)N[C@H](C(=O)O)[C@@H](C)O)C(C)C)C(C)C` [Example 41, CH3C(O)-Gly-Val-Val-Sta-Ala-Thr-OH] (Ac-GVV[Sta]AT-OH), the inhibition at 10 µg/mL in test [2] was found to be 98.3 ± 0.1%. The “βAP Production Inhibition” value in test [1] was -6.2 ± 6.2%.
The like results for `CC(C)C[C@H](NC(=O)[C@@H](NC(=O)[C@@H](NC(=O)CNC(C)C)C(C)C)C(C)C)[C@@H](O)CC(=O)N[C@@H](C)C(=O)N[C@H](C(=O)O)[C@@H](C)O` [Example 42, (CH3)2CH-Gly-Val-Val-Sta-Ala-Thr-OH] (H-[N(iPr)Gly]VV[Sta]AT-OH) were, in that order, 89.5 ± 1.3% and 13.1 ± 7.5%.
The like results for `CC(C)C[C@H](NC(=O)[C@@H](NC(=O)[C@@H](NC(=O)CN)C(C)C)C(C)C)[C@@H](O)CC(=O)N[C@@H](C)C(=O)N[C@H](C(=O)O)[C@@H](C)O` [Example 43, Gly-Val-Val-Sta-Ala-Thr-OH] (H-GVV[Sta]AT-OH) were, in that order, 87.9 ± 2.4% and 16.2 ± 8.5%.
In the same order, the values of `CC(C)C[C@H](NC(=O)[C@@H](NC(=O)CN)C(C)C)[C@@H](O)CC(=O)N[C@@H](C)C(=O)N[C@H](C(=O)O)[C@@H](C)O` [Example 45, Gly-Val-Sta-Ala-Thr-OH] (H-GV[Sta]AT-OH) are 30.6 ± 4.8% and 3.3 ± 1.1%.
Regarding `CC[C@H](C)[C@H](NC(=O)C[C@H](O)[C@H](CC(C)C)NC(=O)[C@@H](NC(=O)CNC(C)C)C(C)C)C(=O)N[C@@H](C)C(=O)N[C@H](C(=O)O)[C@@H](C)O` [Example 48, (CH3)2CH-Gly-Val-Sta-Ile-Ala-Thr-OH] (H-[N(iPr)Gly]V[Sta]IAT-OH), the inhibition at 10 µg/mL in test [2] came out at 79.9 ± 2.7%. In addition, the “βAP Production Inhibition” value in test [1] is 1.6 ± 19.8%.
